Assay results from article PMC6726392 (ACS chemical neuroscience, 2019).

Tests used:
[1] = target: T1, kappa opioid receptor (KOR); human KOR (Homo sapiens, UniProt P41145); assay: [3H]diprenorphine competitive displacement, membranes; assay type: binding
[2] = target: mu opioid receptor (MOR); rat MOR (Rattus norvegicus, UniProt P33535); assay: as above; assay type: binding
[3] = target: delta opioid receptor (DOR); rat DOR (Rattus norvegicus, UniProt P33533); assay: as above; assay type: binding
[4] = target: T1, kappa opioid receptor (KOR); human KOR; assay: […]GTPγS binding stimulation, membranes; assay type: biochemical

Compound	Ki [1] [nM]	Ki [2] [nM]	Ki [3] [nM]	EC50 [4] [nM]
Cc1cc(O)cc(C)c1C[C@H](N)C(=O)N1CCc2c(Cc3ccccc3)cccc2C1 [4a, 5-Bn Dmt-Tiq analogue 4a]	112	17	3.3	–
Cc1cc(O)cc(C)c1C[C@H](N)C(=O)N1CCc2cc(Cc3ccccc3)ccc2C1 [4b, 6-Bn Dmt-Tiq analogue 4b]	38	9.9	4.3	–
Cc1cc(O)cc(C)c1C[C@H](N)C(=O)N1CCc2ccc(Cc3ccccc3)cc2C1 [4c, 7-Bn Dmt-Tiq analogue 4c]	3.9	2.7	6.1	33
Cc1cc(O)cc(C)c1C[C@H](N)C(=O)N1CCc2cccc(Cc3ccccc3)c2C1 [4d, 8-Bn Dmt-Tiq analogue 4d]	26	4.1	185	319
